{
  "source": "patent US4236008A",
  "about": "“Fluorination of precursors for fluorine analogs of hydrocodone and oxycodone” (priority 1978, dated 1980)",
  "key": {"in vivo": {"assay": "in vivo", "details": "mouse, sc, 135 mg/kg"}, "[1]": {"test_system": "characteristic stretching or writhing syndrome induced by phenylquinone", "assay": "standard phenylquinone writhing test (PQW), analgesic activity, oral", "details": "Mus musculus"}, "[2]": {"test_system": "morphine-induced Straub tail", "assay": "narcotic antagonist (anti-Straub tail) test, prevention of morphine-induced Straub tail", "details": "Mus musculus, ip, 10 min, read-out: MOUSE ED50 VALUES: ANTI-STRAUB TAIL"}, "[3]": {"details": "read-out: MOUSE ED50 VALUES: PQW"}, "[4]": {"details": "0.5 h, read-out: MOUSE ED50 VALUES: PQW (peak time value)"}},
  "note": "Where a name gives a salt, the structure may show the parent alone. Read-outs that look alike come from different tables or passages of the source.",
  "data": [
    {"smiles": "COc1ccc2c3c1O[C@H]1C(F)(F)CC[C@@]4(F)[C@@H](C2)N(CC2CCC2)CC[C@]314.Cl", "note": "[Compound 17, 17-Cyclobutylmethyl-4,5α-epoxy-6,6,14β-trifluoro-3-methoxymorphinan Hydrochloride]", "values": [
      {"measurement": "ED50", "setting": "in vivo", "result": "> 135", "unit": "mg/kg"},
      {"measurement": "ED50", "setting": "[1]; [3]", "result": "> 135", "unit": "mg/kg"},
      {"measurement": "ED50", "setting": "[2]", "result": 17, "unit": "mg/kg"}
    ]},
    {"smiles": "CN1CC[C@]23c4c5ccc(O)c4O[C@H]2[C@@H](O)C=C[C@H]3[C@H]1C5", "note": "[Morphine SO4, reference compound]", "values": [
      {"measurement": "ED50", "setting": "[1]; [4]", "result": 3, "unit": "mg/kg"}
    ]},
    {"smiles": "COc1ccc2c3c1O[C@H]1C(F)(F)CC[C@H]4[C@@H](C2)N(C)CC[C@@]341", "note": "[Compound 4, 17-Methyl-4,5-epoxy-6,6-difluoro-3-methoxymorphinan Hydrochloride]", "values": [
      {"measurement": "ED50", "setting": "in vivo", "result": 10, "unit": "mg/kg"},
      {"measurement": "ED50", "setting": "[1]; [3]", "result": 2.7, "unit": "mg/kg"},
      {"measurement": "ED50", "setting": "[2]", "result": "> 81", "unit": "mg/kg"}
    ]},
    {"smiles": "COc1ccc2c3c1O[C@H]1C(F)(F)CC[C@@]4(F)[C@@H](C2)N(CC2CC2)CC[C@]314", "note": "[Compound 13, 17-Cyclopropylmethyl-4,5-epoxy-6,6,14β-trifluoro-3-methoxymorphinan H ydrochloride]", "values": [
      {"measurement": "ED50", "setting": "in vivo", "result": "> 135", "unit": "mg/kg"},
      {"measurement": "ED50", "setting": "[1]; [3]", "result": "> 135", "unit": "mg/kg"}
    ]},
    {"smiles": "COc1ccc2c3c1O[C@H]1[C@@H](O)C=C[C@H]4[C@@H](C2)N(C)CC[C@@]341", "note": "[Codeine PO4, reference compound]", "values": [
      {"measurement": "ED50", "setting": "[1]; [4]", "result": 4.7, "unit": "mg/kg"},
      {"measurement": "ED50", "setting": "[2]", "result": "> 140", "unit": "mg/kg"}
    ]},
    {"smiles": "COc1ccc2c3c1O[C@H]1C(F)=CC[C@H]4[C@@H](C2)N(C)CC[C@]314", "note": "[Compound 2, 17-Methyl-6,7-didehydro-4,5-epoxy-6-fluoro-3-methoxymorphinan Hydrochloride]", "values": [
      {"measurement": "ED50", "setting": "in vivo", "result": 26, "unit": "mg/kg"},
      {"measurement": "ED50", "setting": "[1]; [3]", "result": 8, "unit": "mg/kg"},
      {"measurement": "ED50", "setting": "[2]", "result": 94, "unit": "mg/kg"}
    ]},
    {"smiles": "COc1ccc2c3c1O[C@H]1C(F)(F)CC[C@H]4[C@@H](C2)N(CC2CCC2)CC[C@@]341", "note": "[Compound 9, 17-Cyclobutylmethyl-4,5-epoxy-6,6-difluoro-3-methoxymorphinan Hydrochloride]", "values": [
      {"measurement": "ED50", "setting": "in vivo", "result": "> 135", "unit": "mg/kg"},
      {"measurement": "ED50", "setting": "[1]; [4]", "result": 2.9, "unit": "mg/kg"},
      {"measurement": "ED50", "setting": "[2]", "result": 4.1, "unit": "mg/kg"}
    ]},
    {"smiles": "COc1ccc2c3c1O[C@H]1C(F)(F)CC[C@H]4[C@@H](C2)N(CC2CC2)CC[C@@]341", "note": "[Compound 22, 17-Cyclopropylmethyl-4,5-epoxy-6,6-difluoro-3-methoxymorphinan]", "values": [
      {"measurement": "ED50", "setting": "in vivo", "result": "> 54", "unit": "mg/kg"},
      {"measurement": "ED50", "setting": "[1]; [4]", "result": 2.2, "unit": "mg/kg"},
      {"measurement": "ED50", "setting": "[2]", "result": 0.15, "unit": "mg/kg"}
    ]},
    {"smiles": "COc1ccc2c3c1O[C@H]1C(F)=CC[C@H]4[C@@H](C2)N(CC2CC2)CC[C@]314", "note": "[Compound 23, 17-Cyclopropylmethyl-6,7-didehydro-4,5-epoxy-6-fluoro-3-methoxymorphinan]", "values": [
      {"measurement": "ED50", "setting": "in vivo", "result": "> 135", "unit": "mg/kg"},
      {"measurement": "ED50", "setting": "[1]; [3]", "result": 18, "unit": "mg/kg"},
      {"measurement": "ED50", "setting": "[2]", "result": 0.21, "unit": "mg/kg"}
    ]},
    {"smiles": "COc1ccc2c3c1O[C@H]1C(F)(F)CC[C@@]4(O)[C@@H](C2)N(CC2CCC2)CC[C@]314.Cl", "note": "[Compound 30, 17-Cyclobutylmethyl-4,5α-epoxy-6,6-difluoro-14β-hydroxy-3-methoxymorphinan Hydrochloride]", "values": [
      {"measurement": "ED50", "setting": "[1]; [3]", "result": 26, "unit": "mg/kg"},
      {"measurement": "ED50", "setting": "[2]", "result": 10.8, "unit": "mg/kg"}
    ]},
    {"smiles": "COc1ccc2c3c1OC1C(F)C=CC4C(C2)N(C)CCC341", "note": "(stereo not drawn) [Ayer 3,137,701, reference compound]", "values": [
      {"measurement": "ED50", "setting": "[1]; [3]", "result": 32, "unit": "mg/kg"},
      {"measurement": "ED50", "setting": "[2]", "result": "> 162", "unit": "mg/kg"}
    ]}
  ]
}
